# Active and inactive are the calls of the source. For most assays here, no stated cut-off is given here; in the data, actives have a measured EC50 and inactives only a lower limit.
# Tests used:
# [1] = molecular target: T1, Heat shock factor protein 1 (Mus musculus, UniProt P38532); experiment: enhancement of HSF1-driven luciferase signal – cell-based, NIH3T3, luminescence, dose retest, confirmation (AID 435004); type: functional;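 further: stress induced by proteasome inhibitor MG132 added 30 min after compound; luciferase reporter driven by HSF1 response element in NIH3T3 cells; actives raise luminescence as potentiators of the MG132 stress response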
# T1 sequence (P38532 whole entry): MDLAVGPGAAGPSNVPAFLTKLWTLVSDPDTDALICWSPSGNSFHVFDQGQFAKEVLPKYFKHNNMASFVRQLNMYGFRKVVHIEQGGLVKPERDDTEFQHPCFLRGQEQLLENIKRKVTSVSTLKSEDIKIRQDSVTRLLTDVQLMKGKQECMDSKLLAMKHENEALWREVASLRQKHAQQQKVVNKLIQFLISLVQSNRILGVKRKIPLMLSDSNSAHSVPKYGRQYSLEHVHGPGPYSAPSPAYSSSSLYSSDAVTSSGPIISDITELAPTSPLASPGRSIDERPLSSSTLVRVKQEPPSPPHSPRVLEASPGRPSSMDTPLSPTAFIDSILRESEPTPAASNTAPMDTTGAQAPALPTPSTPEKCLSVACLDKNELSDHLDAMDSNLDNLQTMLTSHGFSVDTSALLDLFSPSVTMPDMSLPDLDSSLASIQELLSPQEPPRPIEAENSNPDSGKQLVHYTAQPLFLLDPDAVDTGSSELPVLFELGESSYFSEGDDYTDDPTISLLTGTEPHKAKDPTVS
# cells = type: functional
# [2] = NIH3T3 cell viability loss – ATP luminescence, mouse fibroblasts, counter-screen, dose response (AID 2010); type: functional, cell-based;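 further: cells exposed to compound for about 90 hours before reading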
# [3] = Trypanosoma cruzi growth suppression in host cells – NIH3T3 host cells, beta-gal luminescence, confirmation (AID 2044); type: functional, cell-based;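 further: intracellular parasites grown in NIH/3T3 mouse fibroblasts as host cells; luminescent beta-galactosidase reporter signal from transgenic T. cruzi replicating inside host cells; inhibitors lower the luminescence signal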
# [4] = molecular target: T2, Corticotropin-releasing factor receptor 2/Corticotropin-releasing factor-binding protein (Homo sapiens, UniProt P24387+Q13324); experiment: Dose Response confirmation of uHTS hits for small molecule antagonists of the CRF-binding protein and CRF-R2 receptor complex.; type: functional; details: read-out: IC50_Mean
# T2 sequence (Q13324 whole entry): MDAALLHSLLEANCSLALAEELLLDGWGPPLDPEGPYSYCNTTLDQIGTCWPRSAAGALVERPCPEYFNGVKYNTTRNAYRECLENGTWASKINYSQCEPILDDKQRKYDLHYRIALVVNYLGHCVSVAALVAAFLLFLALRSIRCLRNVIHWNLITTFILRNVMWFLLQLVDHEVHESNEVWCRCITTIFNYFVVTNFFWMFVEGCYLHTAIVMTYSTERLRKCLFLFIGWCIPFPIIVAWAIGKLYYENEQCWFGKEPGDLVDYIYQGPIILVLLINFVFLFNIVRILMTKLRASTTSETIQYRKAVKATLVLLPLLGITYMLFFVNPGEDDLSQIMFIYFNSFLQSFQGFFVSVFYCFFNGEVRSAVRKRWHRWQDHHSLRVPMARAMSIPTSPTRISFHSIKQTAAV
# T2 sequence (P24387 whole entry): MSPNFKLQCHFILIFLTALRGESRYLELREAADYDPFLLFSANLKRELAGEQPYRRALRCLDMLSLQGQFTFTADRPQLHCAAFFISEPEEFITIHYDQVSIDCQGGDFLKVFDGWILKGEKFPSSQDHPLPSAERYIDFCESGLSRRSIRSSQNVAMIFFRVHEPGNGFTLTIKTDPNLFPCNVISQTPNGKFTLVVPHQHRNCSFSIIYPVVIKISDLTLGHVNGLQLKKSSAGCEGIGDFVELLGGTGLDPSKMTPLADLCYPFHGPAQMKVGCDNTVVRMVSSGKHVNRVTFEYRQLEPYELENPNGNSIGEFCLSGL
# [5] = molecular target: T2, Corticotropin-releasing factor receptor 2/Corticotropin-releasing factor-binding protein; experiment: activators of CRF receptor 2 with binding protein – uHTS hits, confirmation (AID 602473); type: functional; details: read-out: EC50_Mean
# [6] = molecular target: T3, Rac GTPase-activating protein 1 (Homo sapiens, UniProt Q9H0H5); experiment: blockers of MgcRacGAP-driven Rac1 GTP hydrolysis – biochemical, ADP Hunter fluorescence, primary and confirmatory, confirmation (AID 624330); type: functional
# T3 sequence (Q9H0H5 whole entry): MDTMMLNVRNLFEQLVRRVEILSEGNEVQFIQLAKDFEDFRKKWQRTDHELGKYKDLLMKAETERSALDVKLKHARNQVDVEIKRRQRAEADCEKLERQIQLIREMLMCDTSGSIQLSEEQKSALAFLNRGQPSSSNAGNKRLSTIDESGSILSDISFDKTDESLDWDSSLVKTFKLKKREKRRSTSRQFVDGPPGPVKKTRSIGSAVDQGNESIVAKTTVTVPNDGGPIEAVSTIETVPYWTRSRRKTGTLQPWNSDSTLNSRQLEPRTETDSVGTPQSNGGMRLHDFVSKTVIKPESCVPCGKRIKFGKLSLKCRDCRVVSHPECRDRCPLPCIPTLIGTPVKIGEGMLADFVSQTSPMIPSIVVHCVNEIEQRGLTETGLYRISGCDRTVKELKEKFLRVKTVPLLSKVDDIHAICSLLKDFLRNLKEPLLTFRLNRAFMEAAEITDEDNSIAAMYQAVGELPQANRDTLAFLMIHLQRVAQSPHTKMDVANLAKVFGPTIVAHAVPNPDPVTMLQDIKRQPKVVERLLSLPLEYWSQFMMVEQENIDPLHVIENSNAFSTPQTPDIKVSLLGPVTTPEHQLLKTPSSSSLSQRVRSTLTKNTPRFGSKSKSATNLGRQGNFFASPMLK
# H4 = experiment: Luminescence Cell-Based Dose Response HTS to Identify Activators of 5'UTR Stem-Loop Driven Prion Protein mRNA Translation in H4 Neuroglioblastoma Cells. [Related pubchem assays: 1829 (Project Summary), 1814 (Primary HTS)]; type: functional; details: Homo sapiens
# [7] = molecular target: T4, Replicative DNA helicase DnaB (Mycobacterium tuberculosis, UniProt P9WMR3); experiment: DnaB intein splicing inhibitors, dose response, biochemical, cell-free fluorescence (AID 449749); type: functional
# T4 sequence (P9WMR3 whole entry): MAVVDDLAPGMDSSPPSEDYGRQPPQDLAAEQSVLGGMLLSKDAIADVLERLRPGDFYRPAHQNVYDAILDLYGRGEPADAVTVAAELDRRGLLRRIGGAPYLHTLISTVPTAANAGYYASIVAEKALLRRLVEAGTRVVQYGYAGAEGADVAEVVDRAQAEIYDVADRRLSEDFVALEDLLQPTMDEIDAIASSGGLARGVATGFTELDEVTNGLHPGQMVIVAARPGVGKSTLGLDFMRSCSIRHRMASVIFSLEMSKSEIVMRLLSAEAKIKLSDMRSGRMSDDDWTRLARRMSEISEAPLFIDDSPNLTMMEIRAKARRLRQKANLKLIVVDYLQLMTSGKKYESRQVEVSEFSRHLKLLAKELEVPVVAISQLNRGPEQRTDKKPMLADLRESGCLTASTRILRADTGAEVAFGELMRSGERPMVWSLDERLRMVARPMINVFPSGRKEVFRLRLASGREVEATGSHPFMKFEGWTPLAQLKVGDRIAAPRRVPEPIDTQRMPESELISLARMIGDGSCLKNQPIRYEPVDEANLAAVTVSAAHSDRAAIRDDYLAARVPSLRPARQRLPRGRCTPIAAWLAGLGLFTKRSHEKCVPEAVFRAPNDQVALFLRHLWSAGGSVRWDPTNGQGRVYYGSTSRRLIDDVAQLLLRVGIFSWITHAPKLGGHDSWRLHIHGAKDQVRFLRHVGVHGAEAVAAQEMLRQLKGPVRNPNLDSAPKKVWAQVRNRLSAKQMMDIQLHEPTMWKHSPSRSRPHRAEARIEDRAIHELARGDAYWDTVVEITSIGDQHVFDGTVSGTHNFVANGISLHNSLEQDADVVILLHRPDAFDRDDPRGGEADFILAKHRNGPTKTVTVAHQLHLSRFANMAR
# [8] = Luminescence Cell-Based Dose Response HTS to Identify Activators of Luciferase Translation or Activity in H4 […] Cells. [Related pubchem assays: 1829 (Project Summary), 1814 (Primary HTS)]; type: functional
# Protein RecA = molecular target: T5, Protein RecA (Mycobacterium tuberculosis, UniProt P9WHJ3); experiment: Fluorescence Cell-Free Homogeneous Dose Retest to Identify Inhibitors of RecA-Intein Splicing Activity. [Related pubchem assays (depositor defined):AID2097, AID2223, AID489010, AID492950]; type: functional
# T5 sequence (P9WHJ3 whole entry): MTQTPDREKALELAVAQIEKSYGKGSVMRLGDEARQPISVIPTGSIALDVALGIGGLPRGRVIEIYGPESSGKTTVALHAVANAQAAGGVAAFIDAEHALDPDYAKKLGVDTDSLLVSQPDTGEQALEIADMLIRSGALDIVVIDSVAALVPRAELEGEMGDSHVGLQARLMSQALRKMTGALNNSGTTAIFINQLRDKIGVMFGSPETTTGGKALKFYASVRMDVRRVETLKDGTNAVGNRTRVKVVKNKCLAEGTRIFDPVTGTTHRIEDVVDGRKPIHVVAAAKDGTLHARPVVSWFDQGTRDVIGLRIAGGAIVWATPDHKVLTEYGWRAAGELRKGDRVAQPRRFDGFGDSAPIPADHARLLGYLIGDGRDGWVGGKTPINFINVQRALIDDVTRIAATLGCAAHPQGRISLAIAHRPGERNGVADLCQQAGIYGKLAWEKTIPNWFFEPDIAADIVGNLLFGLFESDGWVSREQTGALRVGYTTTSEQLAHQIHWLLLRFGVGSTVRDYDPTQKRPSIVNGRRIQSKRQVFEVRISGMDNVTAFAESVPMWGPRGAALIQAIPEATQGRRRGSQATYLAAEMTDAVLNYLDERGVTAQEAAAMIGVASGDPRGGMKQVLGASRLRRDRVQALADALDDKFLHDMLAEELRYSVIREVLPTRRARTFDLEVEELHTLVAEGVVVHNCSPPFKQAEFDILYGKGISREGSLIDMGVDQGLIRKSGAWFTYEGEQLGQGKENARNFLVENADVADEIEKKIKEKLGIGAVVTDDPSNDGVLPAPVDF
# Streptococcus = experiment: GAS UMAA2166 growth inhibition – luminescence, BacTiterGlo, counter-screen for streptokinase expression inhibitor project, dose response (AID 1915); type: functional, organism-based;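 further: potency for reduction of bacterial viability or growth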
# [9] = test system: Streptococcus sp. 'group A'; experiment: Streptococcus pyogenes SK(-)GAS viability under kanamycin – luminescence, BacTiterGlo, confirmation, counter-screen for streptokinase expression inhibitor project, dose response (AID 1900); type: functional, organism-based
# Streptokinase A = molecular target: T6, Streptokinase A (Streptococcus pyogenes serotype M1, UniProt P10520); experiment: viability-normalized secreted streptokinase activity reduction – plasminogen activation absorbance, OD405, dose response (AID 1914); type: functional, Streptococcus pyogenes M1 GAS;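 further: secreted streptokinase activity via plasminogen activation per viability signal from cell pellet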
# T6 sequence (P10520 whole entry): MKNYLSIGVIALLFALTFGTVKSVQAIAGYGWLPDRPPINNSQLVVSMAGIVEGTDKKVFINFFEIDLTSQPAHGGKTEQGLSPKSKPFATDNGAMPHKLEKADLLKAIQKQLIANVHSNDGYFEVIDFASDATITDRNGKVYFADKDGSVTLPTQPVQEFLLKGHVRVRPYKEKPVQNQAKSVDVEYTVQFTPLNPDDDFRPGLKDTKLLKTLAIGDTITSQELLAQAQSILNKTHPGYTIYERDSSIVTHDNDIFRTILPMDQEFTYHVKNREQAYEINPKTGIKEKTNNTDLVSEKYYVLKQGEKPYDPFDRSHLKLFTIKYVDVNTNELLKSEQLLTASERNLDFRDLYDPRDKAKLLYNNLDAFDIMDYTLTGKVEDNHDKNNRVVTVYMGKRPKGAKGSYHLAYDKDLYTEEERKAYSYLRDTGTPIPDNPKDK
# [10] = Luminescence Cell-Based Dose Retest to Confirm Inhibitors of Cancer Stem Cells. [Related pubchem assays (depositor defined):AID2717, AID2721]; type: functional; details: Homo sapiens
structure (smiles),measurement,setting,value
COc1ccc(/C=C/C(=O)NCCCc2ccccc2)cc1,EC50,[1],> 260 µM (inactive)
O=c1c(-c2ccc3c(c2)OCCO3)coc2cc(O)cc(O)c12,EC50,[1],19.2 µM (active)
CCOC(=O)Cn1c(C)c(Br)c(=O)c2cccc(C)c21,IC50,cells,11.2 µM (active)
Cn1nnc(NC(=O)COc2ccc(C3CCCCC3)cc2)n1,IC50,cells,23.3 µM (active)
O=c1[nH]c2ccccc2n1CCC1CCCCC1,EC50,[1],> 260 µM (inactive)
Cc1cc(N(C)C)c(C#N)c(NCc2ccccc2)n1,EC50,[1],> 260 µM (inactive)
Cc1cc(Cl)ccc1C(=O)C1CCCN(C(=O)c2cnsn2)C1 (stereo not given),EC50,[1],> 260 µM (inactive)
O=C(CCSc1ccccn1)c1ccccc1,IC50,cells,23.2 µM (active)
CC(C)N(Cc1nc(-c2ccc(Cl)cc2)no1)C(=O)CN(C)S(=O)(=O)c1ccc(Cl)cc1,EC50,[2],> 60 µM (not active)
same,EC50,[3],2.71 µM (active)
same,EC50,[1],> 260 µM (inactive)
Nc1c(C(=O)N2CCOCC2)sc2nc3c(cc12)CCC3,IC50,[4],> 47.1 µM (inactive)
same,EC50,[5],> 53 µM (inactive)
COc1cc(/C=C2\C(=O)N(CCC#N)N=C2C)ccc1OCC(=O)Nc1ccccc1,IC50,[6],144 µM (active)
same,EC50,H4,64.8 µM (active)
same,AC50,[7],3.74 µM (active)
same,EC50,[8],< 0.1 µM (active)
same,EC50,Protein RecA,2.79 µM (active)
C=CCn1c(SCC(=O)NC2CCCC2)nc2scc(-c3ccco3)c2c1=O,EC50,[1],> 260 µM (inactive)
Cc1nc2ccc(Br)cc2c(=O)n1Cc1cccs1,EC50,[1],> 260 µM (inactive)
Cc1nc2scc(-c3ccc(Cl)cc3)c2c(=O)n1N,EC50,[1],> 260 µM (inactive)
Cc1cccc(N=C(S)N(CCN(C)C)C(C)c2cccnc2)c1 (stereo not given),EC50,[1],> 260 µM (inactive)
O=C1N=C(N/N=C/c2ccc(F)cc2)SC1c1ccccc1 (stereo not given),IC50,[4],> 47.1 µM (inactive)
same,EC50,[5],> 53 µM (inactive)
O=C(Nc1ccc(Cl)c(Cl)c1)O/N=C/c1ccncc1,EC50,Streptococcus,36.5 µM (active)
same,EC50,[9],1.75 µM (active)
same,EC50,Streptokinase A,> 150 µM (not active)
same,IC50,cells,9.54 µM (active)
same,AC50,[10],5.98 µM (active)
CO/C(O)=C1\C(C)=NC(=S)NC1c1ccc(-c2cccc(Cl)c2)o1 (stereo not given),EC50,[1],> 260 µM (inactive)

# Reference: ChEMBL document CHEMBL1201862, “PubChem BioAssay data set” (2004)
